Data as given in publication PMC10791743, “Selective CK1α degraders exert antiproliferative activity against a broad range of human cancer cell lines” (Nature Communications, 2024).
Where “and” joins values, the source holds several entries; their conditions need not be identical. Equal values may be shown once.

Columns and labels:
MDR1 (P-gp) = assay: MDCKII-MDR1 cell-based permeability assay; type: in vitro ADME; settings: dog, MDCK-MDR1, pH 7.4
Procedure: (§1) page 30: ADME Methods Aqueous solubility assay: Solubility assays were conducted using a Biomek FX lab automation workstation (Beckman Coulter, Inc., Fullerton, CA) and μSOL Evolution software (pION Inc., Woburn, MA). In a 96-well microplate (Cat. No: 3363, Corning Incorporated, Salt Lake, UT), 10 μL of a 10 mM test compound stock in DMSO was added to 190 μL 1-propanol (Thermo Scientific, spectroscopy, Cat. No: 434360010, Fair Lawn, NJ) to create a reference stock plate. From this reference stock plate, 5 μL solutions were mixed with 70 μL 1-propanol and 75 μL Dulbecco's Phosphate Buffered Saline (DPBS, 1X, GibcoTM, Cat. No: 14190-144, Thermo Fisher Scientifics, Waltham, MA) to generate the reference plate (high sensitivity UV plate, Cat. No: 110286, pION Inc., Woburn, MA). In a 96-well storage plate (Cat. No: 201276-100, Agilent, Santa Clara, CA), 6 μL of a 10 mM test compound stock was added to 600 μL buffer, mixed, sealed, and incubated at room temperature for 18 hours. Following incubation, the suspension was filtered through a 96-well filter plate (PVDF, 0.2 μM, Cat. No: 110037, pION Inc., Woburn, MA). The filtrate (75 μL) was combined with 75 μL 1-propanol to create the sample plate. UV spectra of the reference and sample plates were then read, and calculations based on the area under the curve (AUC) of the UV spectra were performed using μSOL Evolution software. All compounds were tested in triplicate wells. MDCKII-MDR1 cell-based permeability assay: High-throughput […]1 permeability assay was performed in the Transwell® 0.4 μm polycarbonate membrane 96-well system with modified methods1,2, […]1 cells were maintained at 37 °C in a humidified incubator with an atmosphere of 5% CO2. The cells were cultured in 75 cm2 flasks with Eagle's Minimum Essential Medium (EMEM) containing 10% fetal bovine serum (FBS), 1% non-essential amino acids (NEAA), 100 units/mL of penicillin, and 100 μg/mL of streptomycin. The […]1 cells were seeded onto inserts at a density of 1×10^4 cells/insert separately. The medium in the wells was changed every other day, and the trans epithelial electrical resistance (TEER) value was measured page 31: using a REMS Autosampler (World Precision Instruments, Sarasota, […]1 cells were grown for 5 days to reach a consistent confluency level monitored by epithelial voltohmmeter to confirm the intactness of the confluent polarized monolayer. For transport experiments, each cultured monolayer on the 96-well plate was washed twice with a transport buffer (HBSS/25 mM […] The cell-based permeability assay was initiated by the addition of each compound solution (10 μmol/L) into inserts (apical side, A) or receivers (basolateral side, B). After incubated […] (if basal to apical permeability), and concentrations were assessed by UPLC/MS (Waters; Milford, MA). All compounds were tested in triplicates. The A→B (or B→A) apparent permeability coefficients (Papp) of each compound were calculated using the equation (3): […], where dQ/dt equals the flux of a drug across the monolayer, the parameters of A equals the surface area of total insert well, and C0 is the initial concentration of substrate in the donor compartment. The efflux ratio was determined by dividing the Papp in the B-A direction by the Papp in the A-B direction. […] NADPH regenerating agent solutions A and B (Corning GentestTM, Cat. No: 451220) were purchased from Discovery Labware (Woburn, MA). Mouse liver microsomes (CD-1, pooled, GibcoTM, Cat. No: MSMCPL) were obtained from Thermo Fisher Scientific (Fredrick, MD). Pooled human liver microsomes (mixed gender, Cat. No: E0630) were purchased from XenoTech (Lenexa, KS). Stock solutions of test compounds were prepared at 10 mM in DMSO. Sample preparation for microsomal stability was modified from Di's publications3,4. […] and 4 hours) by Labcyte Echo 650 acoustic dispenser (Beckman Coulter Life Sciences, Indianapolis, IN). All compounds were tested in triplicate per time point. […]

MDCKII-MDR1 cells = assay: MDCKII-MDR1 cell-based permeability assay; type: in vitro ADME
Procedure: as §1

SMILES | Papp A→B at 1 h, 10 μmol/L (MDR1 (P-gp); apical to basolateral, read-out: MDCK-MDR1 AB) [×10⁻⁶ cm/s] | Papp B→A at 1 h, 10 μmol/L (MDR1 (P-gp); basolateral to apical, read-out: MDCK-MDR1 BA) [×10⁻⁶ cm/s] | Papp (*10^6 cm/s), A2B, single replicate (MDCKII-MDR1 cells; A2B) | Papp (nm/s), A2B, single replicate (MDCKII-MDR1 cells; A2B) | AVG Papp A 2 B (MDCKII-MDR1 cells; A2B, average of 3) [×10⁻⁶ cm/s] | Papp (*10^6 cm/s), B2A, single replicate (MDCKII-MDR1 cells; B2A) | Papp (nm/s), B2A, single replicate (MDCKII-MDR1 cells; B2A) | Efflux Ratio (MDCKII-MDR1 cells; B2A / A2B) | AVG Papp B 2 A (MDCKII-MDR1 cells; B2A, average of 3) [×10⁻⁶ cm/s]
O=C1CCC(N2Cc3cc(Nc4noc5ccccc45)ccc3C2=O)C(=O)N1 (stereo not drawn) [SJ3149] | 27.7 | 36.5 |  |  |  |  |  |  | 
O=C1CCC(N2Cc3cc(Nc4noc5ccccc45)ccc3C2=O)C(=O)N1 (stereo not drawn) [SJ001043149-1] |  |  | 35.9761 *10^6 cm/s and 11.2244 *10^6 cm/s and 35.8135 *10^6 cm/s | 359.761 nm/s and 112.244 nm/s and 358.135 nm/s | 27.6713 | 44.7992 *10^6 cm/s and 31.6544 *10^6 cm/s and 32.9997 *10^6 cm/s | 447.992 nm/s and 316.544 nm/s and 329.997 nm/s | 1.318 | 36.4845
